# Results reported in US20150191469A1, “COMPOUNDS AND METHODS FOR TREATING HIV” (priority 2012, published 2015).
# Tested on: HIV
# Assay: MT4 assay: antiviral HIV activity (cell protection, cell titer glo readout at 96 hours)
# Assay type: cell-based
# Conditions: Human immunodeficiency virus 1, MT4, 96 h, MT4 cells, cell titer glo readout at 96 hours, 10 point dose response; read-out: HIV MT4 Assay IC50
# Outline: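 MT-4 cells infected with HIV, with inhibition readout by CellTiter-Glo luminescence at 96 h relative to no-compound control. Cytotoxicity measured in parallel under the same conditions. IC50 from a 10-point, 3-4-fold dilution series spanning >1000-fold, fitted with a four-parameter logistic equation.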
row,Structure (SMILES),IC50 [nM]
1,Cc1nc2c(cc(-c3csc(N4CCN(C5CCOCC5)CC4)n3)n2C)c(-c2cc(F)c3c(c2C)CCCO3)c1[C@H](OC(C)(C)C)C(=O)O [Example 408],2.7
2,Cc1nc2c(cc(/C=C/C(=O)NCC3CCCCC3)n2C)c(-c2cc(F)c3c(c2C)CCCO3)c1[C@H](OC(C)(C)C)C(=O)O [Example 414],17
3,Cc1nc2c(cc(/C=C/C(=O)NCC3CC3)n2C)c(-c2cc(F)c3c(c2C)CCCO3)c1[C@H](OC(C)(C)C)C(=O)O [Example 415],40.1
4,Cc1nc2c(cc(/C=C/C(=O)NCCC(C)(C)C)n2C)c(-c2cc(F)c3c(c2C)CCCO3)c1[C@H](OC(C)(C)C)C(=O)O [Example 416],26.7
5,Cc1nc2c(cc(/C=C/C(=O)NCc3ccc(F)cc3)n2C)c(-c2cc(F)c3c(c2C)CCCO3)c1[C@H](OC(C)(C)C)C(=O)O [Example 417],33.7
6,Cc1nc2c(cc(/C=C/C(=O)NCCO)n2C)c(-c2cc(F)c3c(c2C)CCCO3)c1[C@H](OC(C)(C)C)C(=O)O [Example 418],3440
7,Cc1nc2c(cc(/C=C/C(=O)NCCN3CCCC3=O)n2C)c(-c2cc(F)c3c(c2C)CCCO3)c1[C@H](OC(C)(C)C)C(=O)O [Example 419],3240
8,Cc1nc2c(cc(-c3ccnc(N4CCCN(C5COC5)CC4)c3)n2C)c(-c2ccc3c(c2)CCCO3)c1[C@H](OC(C)(C)C)C(=O)O [Example 429],75
9,Cc1nc2c(cc(-c3ccnc(N4CCCN(C5COC5)CC4)c3)n2C)c(-c2ccc3c(c2C)CCCO3)c1[C@H](OC(C)(C)C)C(=O)O [Example 430],16.3
10,Cc1nc2c(cc(-c3ccnc(N4CCCN(C5COC5)CC4)c3)n2C)c(-c2cc(F)c3c(c2C)NCCO3)c1[C@H](OC(C)(C)C)C(=O)O [Example 433],127
11,Cc1nc2c(cc(-c3ccnc(N4CCCN(C5COC5)CC4)c3)n2C)c(-c2ccc3c(c2C)NCCO3)c1[C@H](OC(C)(C)C)C(=O)O [Example 434],51.6
12,Cc1nc2c(cc(-c3ccnc(N4CCCN(C5COC5)CC4)c3)n2C)c(-c2ccccc2)c1[C@H](OC(C)(C)C)C(=O)O [Example 435],3010
13,CCO[C@H](C(=O)O)c1c(C)nc2c(cc(-c3nnc(-c4ccc5c(cnn5C)c4)o3)n2C)c1-c1cc(F)c2c(c1C)CCCO2 [Example 439],3
14,CCO[C@H](C(=O)O)c1c(C)nc2c(cc(-c3nnc(N4CCN(C5CCOCC5)CC4)o3)n2C)c1-c1cc(F)c2c(c1C)CCCO2 [Example 440],348
15,Cc1nc2c(cc(-c3nnc(N4CCN(C5CCOCC5)CC4)o3)n2C)c(-c2cc(F)c3c(c2C)CCCO3)c1[C@H](OC(C)C)C(=O)O [Example 441],160
16,Cc1nc2c(cc(-c3nnc(-c4ccc5c(cnn5C)c4)o3)n2C)c(-c2cc(F)c3c(c2C)CCCO3)c1[C@H](OC(C)C)C(=O)O [Example 442],5.1

# Further lines, results first:
row,IC50 [nM],Structure (SMILES)
1,7.6,Cc1ccc(-c2c([C@H](OC(C)(C)C)C(=O)O)c(C)nc3c2cc(-c2ccnc(-c4ccc5c(cnn5C)c4)c2)n3C)cc1 [Example 421]
2,1.5,Cc1nc2c(cc(-c3ccnc(-c4ccc5c(cnn5C)c4)c3)n2C)c(-c2ccc3c(c2Cl)NCCO3)c1[C@H](OC(C)(C)C)C(=O)O [Example 422]
3,1.8,Cc1nc2c(cc(-c3ccnc(-c4ccc5c(cnn5C)c4)c3)n2C)c(-c2ccc3c(c2C)NCCO3)c1[C@H](OC(C)(C)C)C(=O)O [Example 423]
4,46.4,Cc1nc2c(cc(-c3ccnc(-c4ccc5c(cnn5C)c4)c3)n2C)c(-c2ccccc2)c1[C@H](OC(C)(C)C)C(=O)O [Example 424]
5,34.5,Cc1nc2c(cc(-c3ccnc(-c4ccc5c(cnn5C)c4)c3)n2C)c(C2=CCCCC2)c1[C@H](OC(C)(C)C)C(=O)O [Example 425]
6,45000,Cc1nc2c(cc(-c3ccnc(-c4ccc5c(cnn5C)c4)c3)n2C)c(C)c1[C@H](OC(C)(C)C)C(=O)O [Example 426]
7,2.7,Cc1nc2c(cc(-c3ccnc(-c4ccc5c(cnn5C)c4)c3)n2C)c(-c2ccc3c(c2C)OCCO3)c1[C@H](OC(C)(C)C)C(=O)O [Example 427]
8,4.6,Cc1nc2c(cc(-c3ccnc(-c4ccc5c(cnn5C)c4)c3)n2C)c(-c2ccc3c(c2)CCCO3)c1[C@H](OC(C)(C)C)C(=O)O [Example 428]
9,143,Cc1nc2c(cc(-c3ccnc(N4CCCN(C5COC5)CC4)c3)n2C)c(-c2ccc(Cl)cc2)c1[C@H](OC(C)(C)C)C(=O)O [Example 431]
10,200,Cc1ccc(-c2c([C@H](OC(C)(C)C)C(=O)O)c(C)nc3c2cc(-c2ccnc(N4CCCN(C5COC5)CC4)c2)n3C)cc1 [Example 432]
11,5.9,Cc1nc2c(cc(-c3ccnc(-c4ccc5c(cnn5C)c4)c3)n2C)c(C2=CCC(C)(C)CC2)c1[C@H](OC(C)(C)C)C(=O)O [Example 436]
12,38,Cc1nc2c(cc(-c3ccnc(-c4ccc5c(cnn5C)c4)c3)n2C)c(-c2ccc(Cl)cc2O)c1[C@H](OC(C)(C)C)C(=O)O [Example 437]
13,4.9,CCO[C@H](C(=O)O)c1c(C)nc2c(cc(-c3ccnc(-c4ccc5c(cnn5C)c4)c3)n2C)c1-c1cc(F)c2c(c1C)CCCO2 [Example 438]
